From patent publication US10981911B2, “Imidazopyrrolopyridine as inhibitors of the JAK family of kinases” (Janssen Pharmaceutica NV, priority 2016, dated 2021) come the findings set out here.

Holding throughout (assay type): biochemical
In test [1] the target is JAK1-JH1JH2 (Homo sapiens (Human), UniProt P23458). Briefly: Enzymatic inhibition assay (RapidFire HTMS), JAK1. To be noted: 12.5 μM ATP, 200 μM substrate; read-out: JAK1-JH2JH1 IC50. An outline of the steps: (§1)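 Quenched with 0.5% TFA plus internal-standard peptide; phosphorylated product quantified by RapidFire C4 SPE–ESI-MS, 11-point 1:3 or 1:4 dilutions in duplicate.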
Chain of JAK1-JH1JH2 (P23458 574-1154): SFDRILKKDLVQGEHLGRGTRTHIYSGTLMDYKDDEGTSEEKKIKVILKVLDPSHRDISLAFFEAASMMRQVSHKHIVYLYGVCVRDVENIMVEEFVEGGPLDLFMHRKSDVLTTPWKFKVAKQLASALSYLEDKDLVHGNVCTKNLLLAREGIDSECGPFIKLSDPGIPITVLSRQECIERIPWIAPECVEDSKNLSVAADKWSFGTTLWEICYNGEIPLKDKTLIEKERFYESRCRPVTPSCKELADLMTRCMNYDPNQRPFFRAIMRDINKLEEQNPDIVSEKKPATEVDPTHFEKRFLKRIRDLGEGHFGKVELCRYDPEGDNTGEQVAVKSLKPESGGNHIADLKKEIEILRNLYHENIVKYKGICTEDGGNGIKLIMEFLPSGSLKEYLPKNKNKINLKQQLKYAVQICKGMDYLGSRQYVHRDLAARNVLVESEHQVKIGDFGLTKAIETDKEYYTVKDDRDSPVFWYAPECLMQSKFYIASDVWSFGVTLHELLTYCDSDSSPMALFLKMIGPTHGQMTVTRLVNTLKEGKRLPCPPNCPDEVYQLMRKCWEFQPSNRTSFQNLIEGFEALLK

Test [2] has as its target JAK2-JH1JH2 (Homo sapiens (Human), UniProt O60674). Briefly: Enzymatic inhibition assay (RapidFire HTMS), JAK2. To be noted: 30 μM ATP, 40 μM substrate. An outline of the steps: as §1
Test [3] deals with JAK3-JH1JH2 (Homo sapiens (Human), UniProt P52333). Put plainly: Enzymatic inhibition assay (RapidFire HTMS), JAK3. To be noted: 150 μM ATP, 40 μM substrate. Put shortly:
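JAK3 JH1JH2 reaction incubated 45 min at 25 °C, then quenched with 0.5% TFA containing 0.15 μM internal standard peptide. Phosphopeptide product measured by RapidFire C4 SPE–ESI MS (positive mode); inhibition from product decrease versus uninhibited enzyme, 11-point 1:3 or 1:4 dilutions in duplicate.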

The target of test [4] is Tyk2-JH1JH2 (Homo sapiens (Human), UniProt P29597, C1142A/C936A). Briefly: Enzymatic inhibition assay (RapidFire HTMS), Tyk2. To be noted: 50 μM ATP, 200 μM substrate. Put shortly: as §1
Chain of Tyk2-JH1JH2 (P29597 580-1182 C936A/C1142A): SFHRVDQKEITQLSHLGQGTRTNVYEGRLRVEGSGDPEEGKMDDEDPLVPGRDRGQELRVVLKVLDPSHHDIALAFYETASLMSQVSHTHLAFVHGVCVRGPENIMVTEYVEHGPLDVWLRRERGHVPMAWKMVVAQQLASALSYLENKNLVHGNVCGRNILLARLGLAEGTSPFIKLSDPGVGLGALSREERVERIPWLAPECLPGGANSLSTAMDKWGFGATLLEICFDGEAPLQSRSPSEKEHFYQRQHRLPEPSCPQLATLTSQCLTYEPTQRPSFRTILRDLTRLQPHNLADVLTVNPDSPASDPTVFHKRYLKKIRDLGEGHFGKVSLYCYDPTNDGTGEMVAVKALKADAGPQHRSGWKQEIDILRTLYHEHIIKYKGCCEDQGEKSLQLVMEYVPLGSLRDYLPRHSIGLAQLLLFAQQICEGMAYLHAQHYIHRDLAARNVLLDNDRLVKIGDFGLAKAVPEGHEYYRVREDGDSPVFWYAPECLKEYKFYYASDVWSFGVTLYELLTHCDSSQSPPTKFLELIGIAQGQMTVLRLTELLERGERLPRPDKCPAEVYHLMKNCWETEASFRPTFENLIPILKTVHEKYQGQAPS

Chain of JAK3-JH1JH2 (P52333 512-1124): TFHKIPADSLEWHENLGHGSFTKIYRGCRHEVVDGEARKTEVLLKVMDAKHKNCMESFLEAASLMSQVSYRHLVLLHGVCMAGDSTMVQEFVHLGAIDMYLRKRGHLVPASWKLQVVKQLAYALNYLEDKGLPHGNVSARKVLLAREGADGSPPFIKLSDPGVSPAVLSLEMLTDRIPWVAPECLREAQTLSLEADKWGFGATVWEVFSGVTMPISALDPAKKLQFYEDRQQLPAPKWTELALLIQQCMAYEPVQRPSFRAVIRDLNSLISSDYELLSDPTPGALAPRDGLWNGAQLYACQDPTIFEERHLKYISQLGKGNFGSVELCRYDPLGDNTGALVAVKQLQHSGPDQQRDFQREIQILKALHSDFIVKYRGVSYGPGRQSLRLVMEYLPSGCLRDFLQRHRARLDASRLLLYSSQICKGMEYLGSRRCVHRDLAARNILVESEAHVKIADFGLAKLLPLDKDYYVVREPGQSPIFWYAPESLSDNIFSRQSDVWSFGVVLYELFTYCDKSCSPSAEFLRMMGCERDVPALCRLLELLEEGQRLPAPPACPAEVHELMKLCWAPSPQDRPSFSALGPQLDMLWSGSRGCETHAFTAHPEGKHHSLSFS
Chain of JAK2-JH1JH2 (O60674 532-1132): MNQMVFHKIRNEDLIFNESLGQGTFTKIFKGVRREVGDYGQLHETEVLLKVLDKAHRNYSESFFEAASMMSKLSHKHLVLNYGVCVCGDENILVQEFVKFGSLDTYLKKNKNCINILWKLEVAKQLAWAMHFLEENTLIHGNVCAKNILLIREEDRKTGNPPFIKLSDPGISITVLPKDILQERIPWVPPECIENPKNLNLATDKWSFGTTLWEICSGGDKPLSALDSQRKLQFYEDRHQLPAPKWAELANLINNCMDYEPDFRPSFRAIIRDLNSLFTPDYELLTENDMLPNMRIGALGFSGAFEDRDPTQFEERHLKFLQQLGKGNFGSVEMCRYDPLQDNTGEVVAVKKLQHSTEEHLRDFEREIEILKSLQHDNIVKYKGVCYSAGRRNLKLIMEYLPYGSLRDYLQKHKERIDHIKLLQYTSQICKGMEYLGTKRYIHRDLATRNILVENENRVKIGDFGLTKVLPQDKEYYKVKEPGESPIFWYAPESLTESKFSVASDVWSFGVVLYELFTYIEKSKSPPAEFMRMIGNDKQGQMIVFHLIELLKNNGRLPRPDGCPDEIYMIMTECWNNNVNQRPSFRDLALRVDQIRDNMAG

Take `N#CC[C@H]1CC[C@H](n2c(C(=O)NCC3(O)COC3)nc3cnc4[nH]ccc4c32)CC1` [Ex. 80, 1-((1r,4r)-4-(Cyanomethyl)cyclohexyl)-N-((3-hydroxyoxetan-3-yl)methyl)-1,6-dihydroimidazo[4,5-d]pyrrolo[2,3-b]pyridine-2-carboxamide]: the IC50 (in general, the point on the concentration scale where inhibition reaches its midpoint) came to 0.0004 µM in test [1], 0.0021 µM in test [2], 0.0897 µM in test [3] and 0.0041 µM in test [4].

For the compound `Cc1cc(-c2nc3cnc4[nH]ccc4c3n2[C@H]2CC[C@H](CC#N)CC2)[nH]n1` [Ex. 81, 2-((1r,4r)-4-(2-(3-Methyl-1H-pyrazol-5-yl)imidazo[4,5-d]pyrrolo[2,3-b]pyridin-1(6H)-yl)cyclohexyl)acetonitrile], the 50% inhibitory concentration (IC50) in test [1] worked out at 0.0004 µM; in test [2], 0.0037 µM; in test [3], 0.117 µM; in test [4], 0.006 µM.

In the case of `N#CC[C@H]1CC[C@H](n2c(CNC(=O)c3ccc(C#N)cc3)nc3cnc4[nH]ccc4c32)CC1` [Ex. 82, 4-Cyano-N-((1-((1r,4r)-4-(cyanomethyl)cyclohexyl)-1,6-dihydroimidazo[4,5-d]pyrrolo[2,3-b]pyridin-2-yl)methyl)benzamide], the IC50 in test [1] was found to be 0.0004 µM; in test [2], 0.0136 µM; in test [3], 0.189 µM; in test [4], 0.0052 µM.

With `N#CC[C@H]1CC[C@H](n2c(CC(=O)NC3CCSCC3)nc3cnc4[nH]ccc4c32)CC1` [Ex. 83, 2-(1-((1r,4r)-4-(Cyanomethyl)cyclohexyl)-1,6-dihydroimidazo[4,5-d]pyrrolo[2,3-b]pyridin-2-yl)-N-(tetrahydro-2H-thiopyran-4-yl)acetamide], the IC50 came to 0.0004 µM in test [1], 0.0041 µM in test [2], 0.03 µM in test [3] and 0.0094 µM in test [4].

As to `CN1CCC(NC(=O)c2nc3cnc4[nH]ccc4c3n2[C@H]2CC[C@H](CC#N)CC2)CC1` [Ex. 84, 1-((1r,4r)-4-(Cyanomethyl)cyclohexyl)-N-(1-methylpiperidin-4-yl)-1,6-dihydroimidazo[4,5-d]pyrrolo[2,3-b]pyridine-2-carboxamide], the IC50 in test [1] stood at 0.0004 µM; in test [2], 0.0271 µM; in test [3], 1.12 µM; in test [4] it was 0.0104 µM.

`CC(=N)NCc1nc2cnc3[nH]ccc3c2n1[C@H]1CC[C@H](CC#N)CC1` [Ex. 86, N-((1-((1r,4r)-4-(Cyanomethyl)cyclohexyl)-1,6-dihydroimidazo[4,5-d]pyrrolo[2,3-b]pyridin-2-yl)methyl)acetimidamide]: the IC50 is 0.0004 µM in test [1], 0.014 µM in test [2], 2.27 µM in test [3] and 0.0026 µM in test [4].

With `N#CC[C@H]1CC[C@H](n2c(CC(=O)N3CCC(Cc4ccccc4)CC3)nc3cnc4[nH]ccc4c32)CC1` [Ex. 87, 2-((1r,4r)-4-(2-(2-(4-Benzylpiperidin-1-yl)-2-oxoethyl)imidazo[4,5-d]pyrrolo[2,3-b]pyridin-1(6H)-yl)cyclohexyl)acetonitrile], the IC50 was less than 0.0004 µM in test [1], 0.0277 µM in test [2], 0.274 µM in test [3] and 0.0103 µM in test [4].

As to `CNc1nccc(-c2nc3cnc4[nH]ccc4c3n2[C@H]2CC[C@H](CC#N)CC2)n1` [Ex. 89, 2-((1r,4r)-4-(2-(2-(Methylamino)pyrimidin-4-yl)imidazo[4,5-d]pyrrolo[2,3-b]pyridin-1(6H)-yl)cyclohexyl)acetonitrile], the IC50 in test [1] came out at 0.0004 µM; in test [2], 0.0034 µM; in test [3], 0.0606 µM; in test [4] it was 0.018 µM.

Turning to `N#CC[C@H]1CC[C@H](n2c(CC(=O)N3CCCCC3)nc3cnc4[nH]ccc4c32)CC1` [Ex. 90, 2-((1r,4r)-4-(2-(2-Oxo-2-(piperidin-1-yl)ethyl)imidazo[4,5-d]pyrrolo[2,3-b]pyridin-1(6H)-yl)cyclohexyl)acetonitrile], the IC50 in test [1] was less than 0.004 µM; in test [2], 0.0081 µM; in test [3], 0.085 µM; in test [4] it was roughly 0.0024 µM.

`CS(=O)(=O)c1ccc(-c2ccc(-c3nc4cnc5[nH]ccc5c4n3[C@H]3CC[C@H](CC#N)CC3)cc2)cc1` [Ex. 91, 2-((1r,4r)-4-(2-(4′-(Methylsulfonyl)-[1,1′-biphenyl]-4-yl)imidazo[4,5-d]pyrrolo[2,3-b]pyridin-1(6H)-yl)cyclohexyl)acetonitrile]: the IC50 is 0.0004 µM in test [1], 0.0301 µM in test [2], 0.851 µM in test [3] and 0.0355 µM in test [4].

For `N#CC[C@H]1CC[C@H](n2c(-c3ccc(C(=O)c4ccccc4)cc3)nc3cnc4[nH]ccc4c32)CC1` [Ex. 92, 2-((1r,4r)-4-(2-(4-Benzoylphenyl)imidazo[4,5-d]pyrrolo[2,3-b]pyridin-1(6H)-yl)cyclohexyl)acetonitrile], the IC50 in test [1] stood at 0.0004 µM; in test [2], 0.0117 µM; in test [3] it was 0.874 µM; in test [4], 0.0336 µM.

As to `CC(C)(O)C1CCN(C(=O)Cc2nc3cnc4[nH]ccc4c3n2[C@H]2CC[C@H](CC#N)CC2)CC1` [Ex. 93, 2-((1r,4r)-4-(2-(2-(4-(2-Hydroxypropan-2-yl)piperidin-1-yl)-2-oxoethyl)imidazo[4,5-d]pyrrolo[2,3-b]pyridin-1(6H)-yl)cyclohexyl)acetonitrile], the IC50 was 0.0005 µM in test [1], 0.012 µM in test [2], 0.181 µM in test [3] and 0.0045 µM in test [4].

On to `N#CC[C@H]1CC[C@H](n2c(CNC(=O)CC3CC3)nc3cnc4[nH]ccc4c32)CC1` [Ex. 94, N-((1-((1r,4r)-4-(Cyanomethyl)cyclohexyl)-1,6-dihydroimidazo[4,5-d]pyrrolo[2,3-b]pyridin-2-yl)methyl)-2-cyclopropylacetamide], for which the IC50 in test [1] worked out at 0.0005 µM; in test [2], 0.0205 µM; in test [3] it was 0.264 µM; in test [4] it was 0.0121 µM.

For `N#CC[C@H]1CC[C@H](n2c(CN/C(CC3CCCCC3)=N/O)nc3cnc4[nH]ccc4c32)CC1` [Ex. 95], the IC50 in test [1] turned out to be 0.0005 µM; in test [2], 0.0006 µM; in test [3], 0.0187 µM; in test [4] it was 0.0014 µM.

As for `N#CC[C@H]1CC[C@H](n2c(-c3ccc(C#N)cc3)nc3cnc4[nH]ccc4c32)CC1` [Ex. 96, 4-(1-((1r,4r)-4-(Cyanomethyl)cyclohexyl)-1,6-dihydroimidazo[4,5-d]pyrrolo[2,3-b]pyridin-2-yl)benzonitrile], the IC50 in test [1] is 0.0005 µM; in test [2], 0.0338 µM; in test [3] it was 0.46 µM; in test [4], 0.0496 µM.

In the case of `N#CC[C@H]1CC[C@H](n2c(CNS(=O)(=O)c3ccc(C#N)cc3)nc3cnc4[nH]ccc4c32)CC1` [Ex. 97, 4-Cyano-N-((1-((1r,4r)-4-(cyanomethyl)cyclohexyl)-1,6-dihydroimidazo[4,5-d]pyrrolo[2,3-b]pyridin-2-yl)methyl)benzenesulfonamide], the IC50 was determined as 0.0005 µM in test [1], 0.0451 µM in test [2], 3.88 µM in test [3] and 0.0269 µM in test [4].

In the case of `CSc1nccc(-c2nc3cnc4[nH]ccc4c3n2[C@H]2CC[C@H](CC#N)CC2)n1` [Ex. 98, 2-((1r,4r)-4-(2-(2-(Methylthio)pyrimidin-4-yl)imidazo[4,5-d]pyrrolo[2,3-b]pyridin-1(6H)-yl)cyclohexyl)acetonitrile], the IC50 in test [1] was 0.0005 µM; in test [2], 0.0093 µM; in test [3] it was 0.117 µM; in test [4], 0.013 µM.

In the case of `C[Si](C)(C)CNC(=O)Cc1nc2cnc3[nH]ccc3c2n1[C@H]1CC[C@H](CC#N)CC1` [Ex. 99, 2-(1-((1r,4r)-4-(Cyanomethyl)cyclohexyl)-1,6-dihydroimidazo[4,5-d]pyrrolo[2,3-b]pyridin-2-yl)-N-((trimethylsilyl)methyl)acetamide], the IC50 came to 0.0005 µM in test [1], 0.0309 µM in test [2], 0.276 µM in test [3] and 0.0292 µM in test [4].

For `CC(C)(C)C/C(=N/O)NCc1nc2cnc3[nH]ccc3c2n1[C@H]1CC[C@H](CC#N)CC1` [Ex. 101], the IC50 in test [1] came to 0.0005 µM; in test [2], 0.0297 µM; in test [3], 0.182 µM; in test [4], 0.0067 µM.

For the compound `N#CC[C@H]1CC[C@H](n2c(CC(=O)NCC(O)c3ccccc3)nc3cnc4[nH]ccc4c32)CC1` (stereo partly shown) [Ex. 102, 2-(1-((1r,4r)-4-(Cyanomethyl)cyclohexyl)-1,6-dihydroimidazo[4,5-d]pyrrolo[2,3-b]pyridin-2-yl)-N-(2-hydroxy-2-phenylethyl)acetamide], the IC50 in test [1] was found to be 0.0005 µM; in test [2], 0.0115 µM; in test [3], 0.201 µM; in test [4], 0.0074 µM.

As to `N#CC[C@H]1CC[C@H](n2c(CC(=O)N3CCC(C#N)CC3)nc3cnc4[nH]ccc4c32)CC1` [Ex. 105, 1-(2-(1-((1r,4r)-4-(Cyanomethyl)cyclohexyl)-1,6-dihydroimidazo[4,5-d]pyrrolo[2,3-b]pyridin-2-yl)acetyl)piperidine-4-carbonitrile], the IC50 is 0.0006 µM in test [1], 0.0194 µM in test [2], 0.204 µM in test [3] and 0.0069 µM in test [4].

Turning to `N#CC[C@H]1CC[C@H](n2c(CC(=O)NCC(O)CO)nc3cnc4[nH]ccc4c32)CC1` (stereo partly shown) [Ex. 106, 2-(1-((1r,4r)-4-(Cyanomethyl)cyclohexyl)-1,6-dihydroimidazo[4,5-d]pyrrolo[2,3-b]pyridin-2-yl)-N-(2,3-dihydroxypropyl)acetamide], the IC50 in test [1] worked out at 0.0006 µM; in test [2], 0.0143 µM; in test [3], 0.149 µM; in test [4], 0.0112 µM.
